Measurements published in the NIST ThermoML archive (doi:10.1021/je800026p).

Test: xn = mol fraction of the nth substance listed
Conditions: 101 kPa, Liquid; for mass density: Vibrating tube method; for speed of sound: Sing-around technique in a fixed-path interferometer

CCCCCCOCCOCCO [2-(2-hexyloxyethoxy)ethanol] + CCCCN
Conditions | mass density, 298.15 K [kg/m3] | mass density, 303.15 K [kg/m3] | mass density, 308.15 K [kg/m3] | speed of sound, 303.15 K [m/s] | speed of sound, 308.15 K [m/s]
x1 = 0.1165 | 779.774 | 775.186 | 770.602 | 1260.8 | 1240.3
x1 = 0.1587 | 794.52 | 790 | 785.486 | 1271.5 | 1251.3
x1 = 0.1943 | 806.078 | 801.606 | 797.118 | 1279.8 | 1259.8
x1 = 0.2403 | 819.765 | 815.333 | 810.88 | 1289.6 | 1270
x1 = 0.2974 | 834.939 | 830.566 | 826.173 | 1300.6 | 1281.3
x1 = 0.3403 | 845.129 | 840.783 | 836.421 | 1307.9 | 1288.9
x1 = 0.3916 | 856.092 | 851.78 | 847.457 | 1315.7 | 1297.1
x1 = 0.4568 | 868.407 | 864.132 | 859.843 | 1324.2 | 1306
x1 = 0.5105 | 877.388 | 873.158 | 868.903 | 1330.1 | 1312.3
x1 = 0.5658 | 885.768 | 881.571 | 877.355 | 1335.3 | 1317.8
x1 = 0.6081 | 891.728 | 887.547 | 883.355 | 1338.8 | 1321.2
x1 = 0.6559 | 898.025 | 893.876 | 889.716 | 1342.1 | 1324.9
x1 = 0.6977 | 903.194 | 899.074 | 894.942 | 1344.5 | 1327.5
x1 = 0.7402 | 908.162 | 904.067 | 899.964 | 1346.7 | 1329.8
x1 = 0.8029 | 914.893 | 910.805 | 906.755 | 1349.3 | 1332.5
x1 = 0.8675 | 920.91 | 916.89 | 912.833 | 1351.4 | 1334.6
x1 = 0.9082 | 924.113 | 920.095 | 916.07 | 1352.4 | 1335.7
x1 = 0.9635 | 927.494 | 923.492 | 919.484 | 1353.6 | 1336.8
